As usually defined, the melting point is the temperature, or range, at which the solid turns liquid. One may read the IC50 as the concentration that inhibits the measured activity by half.

The values that follow come from paper PMC7491426 (Frontiers in Chemistry, 2020).

Data set [1] can be described thus: Spontaneous hydrolysis (chemical stability) in aqueous phosphate buffer. Format: physicochemical. The note with it: phosphate buffer, pH 7.3, 0.05 M phosphate buffer, pH 7.3, 25°C; read-out: t1/2 for the spontaneous hydrolysis (converted). The protocol:
Spontaneous hydrolysis of selected derivatives was evaluated at 25°C in 0.05 M phosphate buffer, pH 7.3. Kinetics of compound hydrolysis was monitored by measuring changes in absorbance spectra over time using a SpectraMax ABS Plus microplate spectrophotometer (Molecular Devices, Sunnyvale, CA). Absorbance (At) at the characteristic absorption maxima of each compound was monitored over time until no further absorbance decreases occurred (A∞). Using these measurements, we created semilogarithmic plots of log(At-A∞) vs. time, and k′ values were determined from the slopes of these plots. Half-conversion times were calculated using t1/2 = 0.693/k′.
Spontaneous hydrolysis rates of the inhibitors were measured in phosphate buffer at pH 7.3 and 25°C.

Data set [2] deals with T1, HNE (human neutrophil elastase) (Homo sapiens, UniProt P08246).
T1 construct: purchased Calbiochem
T1 sequence (P08246 30-267): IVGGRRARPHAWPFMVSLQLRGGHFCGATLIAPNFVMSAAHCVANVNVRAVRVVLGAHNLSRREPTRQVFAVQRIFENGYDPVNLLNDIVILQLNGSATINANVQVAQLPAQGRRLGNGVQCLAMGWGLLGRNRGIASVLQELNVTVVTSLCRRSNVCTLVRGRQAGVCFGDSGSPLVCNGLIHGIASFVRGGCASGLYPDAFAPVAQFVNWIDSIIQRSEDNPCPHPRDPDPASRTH
Description: HNE inhibition assay (fluorogenic substrate cleavage). Format: biochemical. As to conditions: mean ± SD of three independent experiments; read-out: IC50 (HNE inhibitory activity). The protocol:
Compounds were dissolved in 100% DMSO at 5 mM stock concentrations. […] HNE inhibition assays were performed in black flat-bottom 96-well microtiter plates. Briefly, a solution containing 200 mM Tris–HCl, pH 7.5, 0.01% bovine serum albumin, 0.05% Tween®-20, and 20 mU/mL of HNE (Calbiochem) was added to wells containing different concentrations of each compound. The reaction was initiated by addition of 25 μM elastase substrate (N-methylsuccinyl-Ala-Ala-Pro-Val-7-amino-4-methylcoumarin, Calbiochem) in a final reaction volume of 100 μL/well. Kinetic measurements were obtained every 30 s for 10 min at 25°C using a Fluoroskan Ascent FL fluorescence microplate reader (Thermo Electron, MA) with excitation and emission wavelengths of 355 and 460 nm, respectively. For all compounds tested, the concentration of inhibitor that caused 50% inhibition of the enzymatic reaction (IC50) was calculated by plotting % inhibition vs. logarithm of inhibitor concentration (at least six points).

Data set [3] addresses T1, HNE (human neutrophil elastase). Kind of data set: Persistence of HNE inhibition over extended period of time (16 h). In kind it is biochemical. The note with it: monitored during 16 h in the presence of 10 μM inhibitor. The text has this: The relatively high enzymatic stability of HNE allowed us to evaluate reversibility of the enzyme inhibition over time.

In turn, `CC(C)(C)C(=O)Oc1ccc(S(=O)(=O)n2nc(C3CC3)c(=O)c3ccccc32)cc1` [Compound 9b, 4-[(3-Cyclopropyl-4-oxocinnolin-1(4H)-yl)sulfonyl]phenyl pivalate] yielded a melting point of 121 to 123 °C. The half-life in data set [1] was 1.9 h. The half-maximal inhibitory concentration (IC50) in data set [2] was determined as 78 ± 18 nM. Besides, the “Remaining HNE activity” value in data set [3] is listed as 9.2 ± 2.5%.
